In one test the test system is 1HAEo-cells. Briefly: BrdU incorporation by flow cytometry, 1HAEo- cells. It counts as cell-based, human. The settings on record: EGTA 2 mM, aphidicolin 10 μg/ml where present. As to the method:
A BrdU Labelling and Detection Kit (Roche, Basel, Switzerland) was used, which contains the BrdU labelling reagent and the monoclonal mouse anti-BrdU. […] Cells were washed with PBS and incubated with a second layer antibody, Texas Red labelled horse anti-mouse IgG (Vector Laboratories, Peterborough, UK), for 30 minutes at 37° C. and then analysed by flow cytometry at the wavelength of 575±20 nm as detailed above. In some experiments, aphidicolin, a cell-proliferation inhibitor blocking the cell cycle in S-phase, was added to the cells to observe the effects on transfection efficiency.

Test [1] relates to Human airway epithelial (HAE) cells. In words: BrdU labelling of HAE cells, Example 13. It counts as cell-based. The procedure:
Bromodeoxyuridine (BrdU) labelling enables assessment of cell proliferation. BrdU kits are available from Zymed Laboratories, Inc., South San Francisco, Calif., U.S.A. BrdU was added to the cells at the same time as the transfection reagent and was maintained throughout the rest of the experiment until cell harvesting.
For orientation: Uptake of a labelled nucleoside into DNA is a usual measure of proliferation.

For the next test, the system named is integrins. The settings on record: cited from earlier work.
The next test concerns ECV304 cells. In words: Luciferase (pGL2) transfection of ECV304 cells. As to conditions: LID complexes, 40 μg total [K]16-peptide; luciferase after 48 hours. It counts as cell-based, human. As to the method: Cells were seeded into 24-well plates at 5×10^4 cells per well then incubated overnight at 37° C. in complete growth medium. The following day, transfection complexes were made from the following stock solutions, all prepared in OptiMEM (Life Technologies, Paisley, U. K.), lipofectin (an equimolar mixture of the cationic lipid N-[1-(2,3-dioleyloxy)propyl]-N,N,N-trimethylammonium chloride (DOTMA) and the neutral lipid dioleoyl phosphatidylethanolamine (DOPE), obtained as “Lipofectin” from Life Technologies, Paisley, U.K.) (1 mg/ml), pGL2-control (1 mg/100 ml) and [K]16]/integrin-targeting peptide 1, 5 or 6 (0.1 mg/ml).
Complexes were made usually with three components: oligolysine-peptide (I), plasmid DNA or RNA (D) and lipofectin (L), by mixing together the different components with an automatic pipette. […]
Cells transformed with pGL2 were washed twice with PBS to remove serum then 100 microlitres of Reporter Lysis Buffer (Promega, Madison, Wis, U.S.A.) was added to each well and placed at […] for 15 to 30 minutes. […] Total light emission was measured for 60 seconds on an LKB 1251 Luminometer (Labtech, Uckfield, U.K.). The protein concentration of each sample was then determined with Protein Assay Reagent (BioRad, Hercules, Calif., U.S.A.) and luciferase enzyme activity expressed in terms of relative light units per milligram of protein (RLU/mg). […]

Test [2] deals with human lung fibroblasts (HFL-1 cells). In words: Thrombin-induced proliferation of HFL-1 cells after antisense (PAR-1) transfection. The format is cell-based. As to the method: Thrombin stimulates proliferation of human lung fibroblasts. Thrombin-treated human lung fibroblasts (HFL-1 cells) proliferated 53% in response to thrombin. 24 hours before treatment with thrombin, HFL-1 cells were treated with an LID complex comprising [K]16-peptide 6, lipofectin and a 20-mer antisense oligonucleotide directed against the thrombin receptor PAR-1 in the optimal ratio and mixing order prepared as described in the Materials and Methods section and the Examples above. The antisense oligonucleotide-containing complex was in contact with the cells for 4 hours. 24 hours after the start of the treatment with the complex, treatment with thrombin was carried out.

Turning to `O=c1[nH]c(=O)n([C@H]2C[C@H](O)[C@@H](CO)O2)cc1Br` [BrdU, 5-Bromo-2′-deoxy-uridine], in the test on 1HAEo-cells, the “BrdU-positive cells, confluent 1HAEo- cells” value is 7.1% and the “BrdU-positive cells, sub-confluent 1HAEo- cells” value is recorded as 43.0%. Further, in test [1], the “BrdU labelling, Confluent cells” value came to 7.1% and the “BrdU labelling, Sub-confluent cells” value turned out to be 44.4%. As for `C[C@@]1(CO)[C@H](O)CC[C@@]2(C)[C@H]1CC[C@H]1C[C@@H]3C[C@@]12CC[C@]3(O)CO` [aphidicolin, Aphidicolin], in the test on 1HAEo-cells, the “BrdU-positive cells, confluent 1HAEo- cells” value is 5% and the “BrdU-positive cells, sub-confluent 1HAEo- cells” value turned out to be 7%. Regarding GACDCRGDCFCA [Peptide 5], in the test on integrins, the integrin specificity entry is on record as “(αv)”. For “[K]16GACRRETAWACG (KKKKKKKKKKKKKKKKGACRRETAWACG) [oligolysine-peptide 6]”, the “transfection efficiency with increasing amounts of oligolysine-peptide 6 replacing [K]16” value with ECV304 cells is reported as “apparently exponential increase”. Regarding thrombin, the “proliferation in response to thrombin” value in test [2] is 53%.

The values are drawn from patent publication US20040014217A1, “Methods of transfection” (priority 2000, published 2004).
